{
  "source": "paper PMC9266216",
  "about": "“Chemical Characterization, α-Glucosidase, α-Amylase and Lipase Inhibitory Properties of the Australian Honey Bee Propolis” (Foods, 2022)",
  "key": {"α-glucosidase": {"target": "α-glucosidase (Saccharomyces cerevisiae, UniProt P53341)", "sequence (P53341 whole entry)": "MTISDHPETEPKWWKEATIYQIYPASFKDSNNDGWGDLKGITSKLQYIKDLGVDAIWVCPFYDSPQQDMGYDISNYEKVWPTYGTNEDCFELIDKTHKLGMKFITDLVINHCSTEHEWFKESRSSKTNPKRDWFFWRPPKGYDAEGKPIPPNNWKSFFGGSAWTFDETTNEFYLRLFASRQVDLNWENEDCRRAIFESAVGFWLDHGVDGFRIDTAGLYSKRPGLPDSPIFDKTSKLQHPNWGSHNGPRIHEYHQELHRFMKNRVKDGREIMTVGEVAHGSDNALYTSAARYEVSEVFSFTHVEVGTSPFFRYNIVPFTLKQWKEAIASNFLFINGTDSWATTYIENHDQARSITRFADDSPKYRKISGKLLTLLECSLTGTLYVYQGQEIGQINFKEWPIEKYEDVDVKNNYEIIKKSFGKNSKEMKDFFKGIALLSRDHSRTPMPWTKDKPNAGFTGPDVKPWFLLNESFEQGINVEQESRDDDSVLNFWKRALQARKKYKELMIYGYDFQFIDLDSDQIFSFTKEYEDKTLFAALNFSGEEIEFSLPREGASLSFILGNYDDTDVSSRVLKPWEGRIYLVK", "assay": "biochemical", "details": "read-out: α-Glucosidase inhibition", "experimental": "The α-glucosidase inhibition assay was performed at room temperature in 96-well microtiter plates (Sigma Aldrich, Sydney, Australia). The assays were adapted from Zhao et al., with some modifications. Briefly, in each well was added 10 μL of propolis sample at 2 mg/mL in DMSO and 90 μL of 0.1 M phosphate buffer, adjusted to pH 7.5 using 0.6 M KOH. To the solution, 80 μL of α-glucosidase solution (2.0 U/mL) was added and incubated for 10 min at room temperature. The enzyme reaction was initiated by adding 20 μL of p-NPG solution (10 mM in phosphate buffer). The colorimetric absorbance of the cleavage product (the strongly chromogenic p-nitrophenolate ion) after 30 min of incubation was measured at 405 nm using the EnSpire microplate reader (Perkin Elmer, Boston, MA, USA). […] The results were analyzed and calculated in Microsoft Excel, and expressed using the mean for each of the triplicate sets. Inhibition of the enzyme was calculated as follows: Inhibition (%)=(1−Absorbance (sample)/Absorbance (blank) )×100%)"}, "human salivary α-amylase": {"target": "T1, human salivary α-amylase (Homo sapiens, UniProt P0DUB6)", "T1 construct": "purchased Sigma Aldrich", "T1 sequence (P0DUB6 16-511)": "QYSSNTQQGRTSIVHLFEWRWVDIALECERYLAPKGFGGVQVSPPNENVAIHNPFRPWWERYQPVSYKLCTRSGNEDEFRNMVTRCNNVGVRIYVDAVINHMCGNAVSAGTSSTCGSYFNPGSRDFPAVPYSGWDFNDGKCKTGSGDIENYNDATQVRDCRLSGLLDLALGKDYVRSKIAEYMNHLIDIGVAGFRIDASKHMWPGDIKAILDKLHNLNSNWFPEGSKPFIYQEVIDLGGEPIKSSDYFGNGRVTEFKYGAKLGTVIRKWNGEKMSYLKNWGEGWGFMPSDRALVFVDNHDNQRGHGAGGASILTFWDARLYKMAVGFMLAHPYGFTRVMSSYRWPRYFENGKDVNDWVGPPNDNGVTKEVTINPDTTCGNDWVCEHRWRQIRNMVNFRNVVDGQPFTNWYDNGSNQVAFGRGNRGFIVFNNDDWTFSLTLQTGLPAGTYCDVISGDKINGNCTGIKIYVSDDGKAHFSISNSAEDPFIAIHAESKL", "assay": "α-amylase inhibition assay (CNP-G3, absorbance 405 nm)", "format": "biochemical", "details": "for IC50: 120 min incubation, pH 6.0, 37 °C", "experimental": "The α-amylase inhibition assay was performed in 96-well microtiter plates. In each well was added 10 μL of propolis sample dissolved in DMSO, and 90 μL of 0.1 M phosphate buffer adjusted to pH 6.0 using 2.0 M H3PO4. To the solution, 80 μL of human salivary α-amylase solution (2.0 U/mL) was added and incubated for approximately 10 min at 37 °C. The enzyme reaction was initiated by adding 20 μL of the substrate solution CNP-G3 (10 mM in phosphate buffer). […] The percentage inhibition was calculated using the same formula as described for the α-glucosidase inhibition assay."}, "porcine pancreas lipase": {"target": "T2, porcine pancreas lipase (Sus scrofa, UniProt P00591)", "T2 construct": "purchased Sigma Aldrich", "T2 sequence (P00591 1-450)": "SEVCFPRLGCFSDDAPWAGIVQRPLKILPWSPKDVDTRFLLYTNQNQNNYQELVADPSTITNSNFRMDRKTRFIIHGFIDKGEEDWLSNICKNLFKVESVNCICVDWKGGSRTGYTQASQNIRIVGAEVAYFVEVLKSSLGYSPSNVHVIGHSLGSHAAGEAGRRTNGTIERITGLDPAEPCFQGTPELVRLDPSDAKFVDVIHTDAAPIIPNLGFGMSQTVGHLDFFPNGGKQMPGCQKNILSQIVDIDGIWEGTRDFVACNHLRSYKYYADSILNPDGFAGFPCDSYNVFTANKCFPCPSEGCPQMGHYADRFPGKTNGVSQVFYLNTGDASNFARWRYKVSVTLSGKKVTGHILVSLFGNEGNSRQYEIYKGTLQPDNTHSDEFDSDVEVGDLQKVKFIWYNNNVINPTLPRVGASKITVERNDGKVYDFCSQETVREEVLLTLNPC", "assay": "lipase inhibition assay (p-NPB, absorbance 405 nm)", "format": "biochemical", "details": "for IC50: 60 min incubation, pH 7.4, 37 °C", "experimental": "The solvents used for extraction (ethanol—EtOH), HPLC (acetonitrile—MeCN), and LC–MS (MeCN and water—H2O) analyses were purchased from Merck. The ultra-pure water used for the HPLC analysis was from an in-house Milli-Q system.\nThe lipase inhibition assay was performed in 96-well microtiter plates. In each well was added 10 μL of propolis sample dissolved in DMSO and 155 μL of 0.1 M tris-HCl buffer adjusted to pH 7.4 using 1.0 M KOH. To the solution, 25 μL of lipase solution (2000 U/mL) was added and incubated for approximately 15 min at 37 °C. The enzyme reaction was initiated by adding 10 μL of the substrate solution p-NPB (100 mM in methanol). The colorimetric absorbance of the cleavage product after 60 min of incubation was measured at 405 nm, using the EnSpire microplate reader (Perkin Elmer). […] The percentage inhibition was calculated using the same formula as described for the α-glucosidase inhibition assay."}},
  "data": [
    {"smiles": "O=C1C[C@@H](c2ccc(O)cc2)Oc2cc(O)cc(O)c21", "note": "[Compound 8, naringenin, reference compound]", "values": [
      {"measurement": "inhibition at 250 µM", "setting": "α-glucosidase", "result": 40, "unit": "%"},
      {"measurement": "IC50", "setting": "human salivary α-amylase", "result": 121, "unit": "µM"},
      {"measurement": "inhibition at 250 µM", "setting": "human salivary α-amylase", "result": 73, "unit": "%"},
      {"measurement": "inhibition at 83 µM", "setting": "porcine pancreas lipase", "result": 24, "unit": "%"}
    ]},
    {"smiles": "CC(C)=CCC/C(C)=C/Cc1c([C@@H]2CC(=O)c3c(cc(O)c(CC=C(C)C)c3O)O2)ccc(O)c1O", "note": "[Compound 5, propolin G (Nymphaeol C)]", "values": [
      {"measurement": "IC50", "setting": "human salivary α-amylase", "result": 246, "unit": "µM"},
      {"measurement": "IC50", "setting": "porcine pancreas lipase", "result": 43.4, "unit": "µM"}
    ]},
    {"smiles": "O=c1c(O)c(-c2ccc(O)c(O)c2)oc2cc(O)cc(O)c12", "note": "[Compound 9, quercetin, reference compound]", "values": [
      {"measurement": "IC50", "setting": "human salivary α-amylase", "result": 17.4, "unit": "µM"},
      {"measurement": "inhibition at 83 µM", "setting": "porcine pancreas lipase", "result": 37, "unit": "%"}
    ]},
    {"smiles": "CC(C)=CCC/C(C)=C/Cc1cc([C@@H]2CC(=O)c3c(O)cc(O)cc3O2)cc(O)c1O", "note": "[Compound 2, propolin F (Isonymphaeol B)]", "values": [
      {"measurement": "IC50", "setting": "human salivary α-amylase", "result": 135, "unit": "µM"},
      {"measurement": "IC50", "setting": "porcine pancreas lipase", "result": 53, "unit": "µM"}
    ]},
    {"smiles": "O=C1C[C@@H](c2ccc(O)c(O)c2)Oc2cc(O)cc(O)c21", "note": "[Compound 7, eriodictyol, reference compound]", "values": [
      {"measurement": "inhibition at 250 µM", "setting": "α-glucosidase", "result": 13, "unit": "%"},
      {"measurement": "inhibition at 250 µM", "setting": "human salivary α-amylase", "result": 41, "unit": "%"},
      {"measurement": "inhibition at 83 µM", "setting": "porcine pancreas lipase", "result": 12, "unit": "%"}
    ]},
    {"smiles": "CC(C)=CCC/C(C)=C/Cc1c([C@@H]2CC(=O)c3c(O)cc(O)cc3O2)ccc(O)c1O", "note": "[Compound 1, propolin D (Nymphaeol B)]", "values": [
      {"measurement": "IC50", "setting": "human salivary α-amylase", "result": 205, "unit": "µM"},
      {"measurement": "IC50", "setting": "porcine pancreas lipase", "result": 51.8, "unit": "µM"}
    ]},
    {"smiles": "CC(C)=CCC/C(C)=C/Cc1c(-c2oc3cc(O)cc(O)c3c(=O)c2O)ccc(O)c1O", "note": "[Compound 6, solophenol D]", "values": [
      {"measurement": "IC50", "setting": "human salivary α-amylase", "result": 142, "unit": "µM"},
      {"measurement": "IC50", "setting": "porcine pancreas lipase", "result": 32.3, "unit": "µM"}
    ]},
    {"smiles": "CC(C)=CCC/C(C)=C/Cc1cc([C@@H]2CC(=O)c3c(O)cc(O)cc3O2)ccc1O", "note": "[Compound 4, propolin H (3′-geranyl-naringenin)]", "values": [
      {"measurement": "IC50", "setting": "human salivary α-amylase", "result": 52.5, "unit": "µM"},
      {"measurement": "IC50", "setting": "porcine pancreas lipase", "result": 33.1, "unit": "µM"}
    ]},
    {"smiles": "CC(C)=CCC/C(C)=C/Cc1c(O)cc2c(c1O)C(=O)C[C@@H](c1ccc(O)c(O)c1)O2", "note": "[Compound 3, propolin C (Nymphaeol A)]", "values": [
      {"measurement": "IC50", "setting": "human salivary α-amylase", "result": 204, "unit": "µM"},
      {"measurement": "IC50", "setting": "porcine pancreas lipase", "result": 30.3, "unit": "µM"}
    ]}
  ]
}
